Literature values as cited in patent publication US12263155B2, “Combinations of monoamine oxidase inhibitors and serotonin receptor agonists and their therapeutic use” (Remedi, Inc., priority 2022, dated 2025).
Where two headings read alike, the source gives them in different places.

Tests used:
[1] = in vivo; cited from earlier work
[2] = target: T1, platelet MAO-B (Homo sapiens, UniProt P27338); conditions: cited from earlier work
T1 construct: host or cells: human platelets
T1 sequence (P27338 1-520): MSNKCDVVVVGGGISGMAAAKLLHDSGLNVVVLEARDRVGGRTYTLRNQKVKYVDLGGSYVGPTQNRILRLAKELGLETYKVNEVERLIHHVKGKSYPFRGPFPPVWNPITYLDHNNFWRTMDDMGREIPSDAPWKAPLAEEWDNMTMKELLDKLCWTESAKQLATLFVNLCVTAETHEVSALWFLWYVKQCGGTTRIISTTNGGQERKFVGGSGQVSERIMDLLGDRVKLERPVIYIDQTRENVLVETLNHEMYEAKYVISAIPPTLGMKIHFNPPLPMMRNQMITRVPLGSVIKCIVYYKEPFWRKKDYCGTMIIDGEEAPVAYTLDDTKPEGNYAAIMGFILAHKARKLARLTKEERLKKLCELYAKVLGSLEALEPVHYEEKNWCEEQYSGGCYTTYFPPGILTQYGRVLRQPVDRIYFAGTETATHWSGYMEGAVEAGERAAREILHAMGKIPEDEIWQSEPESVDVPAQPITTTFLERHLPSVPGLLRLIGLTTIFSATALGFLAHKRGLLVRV

SMILES	apparent volume of distribution [1] [L/kg]	inhibition of platelet MAO-B ([2]; 450 mg dose) [%]	inhibition of platelet MAO-B ([2]; human subjects, single 100 mg dose) [%]
CN(C)CCc1c[nH]c2ccccc12 [DMT, N,N-dimethyltryptamine]	36 to 55		
O=C(NCCN1CCOCC1)c1ccc(Cl)cc1 [moclobemide]		32	27
